Results as given in patent US20070172424A1, “Enabling drug adherence through closed loop monitoring & communication” (priority 2006, published 2007).
Each block holds one compound with its values, some of them ahead of it.

Assays:
[1] = in vivo
Procedure: The ability to detect the blood concentration of a pain reliever, such as liquid acetaminophen in the blood stream by measuring a tracer is described. The research is carried out by two researchers A & B.
10 ml liquid cough medicine (acetaminophen) 10 ml of 80 proof vodka
Researcher “A” combines the liquid cough medicine together with the vodka in a common flask. “A” stirs until mixed. “A” gives the mixture to the study subject to consume orally. Waits 30 minutes. Subject breathes into breathalyzer, “A” extracts blood sample. “A” repeats both measurements 8 more times at 30 minute intervals. “A” compares alcohol readings with a PK curve for alcohol; compares mass spectrometer analysis of blood for the presence of acetaminophen with a PK curve for acetaminophen.
The standard PK curves for alcohol & acetaminophen are provided to “B”, and he is told the must analyze one reading that was taken 2 hours after ingestion, and determine whether the alcohol reading was within the anticipated range of PK curve. He is given the alcohol breathalyzer result for 2 hours after ingestion.

[2] = rats, within 24 hours of administration; cited from earlier work

Compound: CC(=O)Nc1ccc(O)cc1 [acetaminophen]
PK results versus standard PK curve for acetaminophen ([1]; po): fall within range of the standard PK curve

Compound: CC(C)=CCCC(C)=CC=O [Citral]
fraction of the given dose excreted in urine [2]: 50%

2-hour breathalyzer reading versus anticipated range of PK curve [1]: fall within statistical range
Compound: CCO [alcohol]
PK results versus standard PK curve for alcohol ([1]; po): fall within range of the standard PK curve
